Results: patent US9522883B2, “Glycosidase inhibitors and uses thereof” (Alectos Therapeutics Inc., priority 2012, dated 2016)

Molecular target: human O-GlcNAcase (Homo sapiens (Human), UniProt O60502)
Experiment: Assay for determination of KI values for inhibition of O-GlcNAcase activity (fluorescence-based hOGA)
Format: biochemical
Details: purified human O-GlcNAcase, 4-Methylumbelliferyl N-acetyl-β-D-glucosaminide substrate, pH 7.0, Cheng-Prusoff
Description: Enzymatic reactions were carried out in a reaction containing 50 mM NaH2PO4, 100 mM NaCl and 0.1% BSA (pH 7.0) using 2 mM 4-Methylumbelliferyl N-acetyl-β-D-glucosaminide dihydrate (Sigma M2133) dissolved in ddH2O, as a substrate. The amount of purified human O-GlcNAcase enzyme used in the reaction was 0.7 nM. Test compound of varying concentrations was added to the enzyme prior to initiation of the reaction. The reaction was performed at room temperature in a 96-well plate and was initiated with the addition of substrate. The production of fluorescent product was measured every 60 sec for 45 min with a Tecan Infinite M200 plate-reader with excitation at 355 nm and emission detected at […], with 4-Methylumbelliferone (Sigma M1381) used to produce a standard curve. The slope of product production was determined for each concentration of compound tested and plotted, using standard curve fitting algorithms for sigmoidal dose response curves. The values for a four parameter logistic curve fit of the data were determined.
KI values were determined using the Cheng-Prusoff equation; the Km of O-GlcNAcase for substrate was 0.2 mM.

human O-GlcNAcase, sequence (O60502 whole entry): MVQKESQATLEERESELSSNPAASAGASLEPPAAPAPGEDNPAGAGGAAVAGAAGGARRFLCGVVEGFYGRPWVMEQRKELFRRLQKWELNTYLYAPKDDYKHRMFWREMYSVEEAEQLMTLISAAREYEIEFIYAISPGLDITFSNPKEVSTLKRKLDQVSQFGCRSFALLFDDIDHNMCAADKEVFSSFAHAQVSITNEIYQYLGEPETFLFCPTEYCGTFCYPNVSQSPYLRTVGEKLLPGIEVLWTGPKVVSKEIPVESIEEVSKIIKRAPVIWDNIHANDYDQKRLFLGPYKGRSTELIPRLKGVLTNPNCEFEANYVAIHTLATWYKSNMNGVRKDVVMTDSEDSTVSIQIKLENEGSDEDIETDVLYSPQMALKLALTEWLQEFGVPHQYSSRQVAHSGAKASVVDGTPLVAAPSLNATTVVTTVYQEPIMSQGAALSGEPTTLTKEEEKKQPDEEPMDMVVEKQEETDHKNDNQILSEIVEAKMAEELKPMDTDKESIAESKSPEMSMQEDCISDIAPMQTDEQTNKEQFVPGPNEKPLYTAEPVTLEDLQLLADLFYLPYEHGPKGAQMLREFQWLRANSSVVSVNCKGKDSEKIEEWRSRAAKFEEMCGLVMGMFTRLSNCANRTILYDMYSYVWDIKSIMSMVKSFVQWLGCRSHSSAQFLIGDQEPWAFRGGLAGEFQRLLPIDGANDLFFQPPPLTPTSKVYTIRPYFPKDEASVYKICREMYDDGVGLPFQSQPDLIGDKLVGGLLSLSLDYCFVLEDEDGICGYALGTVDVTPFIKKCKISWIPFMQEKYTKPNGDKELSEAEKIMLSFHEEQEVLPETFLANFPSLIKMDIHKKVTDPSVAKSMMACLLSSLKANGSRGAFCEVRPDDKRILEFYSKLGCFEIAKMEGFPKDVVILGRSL

CC(=O)N[C@H]1CN(CCCCc2ccccc2)[C@H](CO)[C@@H](O)[C@@H]1O [Example 1, N-((3S,4R,5R,6R)-4,5-dihydroxy-6-(hydroxymethyl)-1-(4-phenylbutyl)piperidin-3-yl)acetamide]
Ki: 2580 nM
